For the assay, the target named is T1, FraR (Salmonella enterica, UniProt Q8ZLC9).
T1 sequence (Q8ZLC9 1-239): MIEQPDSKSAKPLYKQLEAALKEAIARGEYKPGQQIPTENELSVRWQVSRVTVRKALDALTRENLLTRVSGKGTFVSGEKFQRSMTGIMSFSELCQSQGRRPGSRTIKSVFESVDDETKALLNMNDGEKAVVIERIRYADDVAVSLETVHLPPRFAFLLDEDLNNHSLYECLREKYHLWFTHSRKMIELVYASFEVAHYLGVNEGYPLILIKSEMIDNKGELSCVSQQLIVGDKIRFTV
Nature of the assay: online buffer exchange native MS titration. It counts as binding.

Each structure is given as a SMILES string.

A word on the Kd: it is a measure of binding affinity in units of concentration. In turn, `O=C(O)C[C@H](NCC(=O)[C@@H](O)[C@H](O)[C@H](O)COP(=O)(O)O)C(=O)O` [6-P-F-Asp, 6-phosphofructose-aspartate] returned a Kd of 3.8 ± 0.6 µM.
